Assay results taken from US9321718B2 (CHROMA THERAPEUTICS LTD., priority 2010, dated 2016).
Read-outs that look alike come from different tables or passages of the source.

Columns and labels:
[1] = target: T1, human recombinant his-tagged HSP90α (Homo sapiens, UniProt P07900); assay: HSP90 enzyme assay (HTRF, competition with biotinylated Geldanamycin); assay type: binding; details: IC50 range; read-out: Enzyme Assay
T1 construct: purchased Prospec Technogene #HSP90
From the text: An HTRF (homogeneous time resolved fluorescence) assay is used to measure the interaction of the compounds with HSP90. The assay measures binding of biotinylated Geldanamycin (bio-GM; Biomol, #EI-341, lot: A9199a) to human recombinant his-tagged HSP90α (HSP90; Prospec Technogene, #HSP90, lot: 260HSP9001). A signal is generated by fluorescence resonance energy transfer from an Europium-cryptate labeled anti-his antibody (anti-his-K; Cisbio International, #61HISKLA, lot: 33V) via the HSP90-GM-biotin complex to a fluorescence acceptor (allophycocyanin) linked to streptavidin (SA-XL; Cisbio International, #610SAXLB, lot: 089).
Unlabeled GM or compounds compete with the bio-GM for binding to HSP90 resulting in reduced fluorescence energy transfer/assay signal.
A preformed (1 hour incubation) complex of HSP90 with the anti-his-K is added to the compound solution in a 384 well microplate (Corning, #3710) and incubated for 15 minutes. A preformed (1 hour incubation) complex of bio-GM with the SA-XL is added to the wells and incubated for 20 hours. All incubations are performed at room temperature. The final assay volume is 50 μl/well. The final concentrations in the assay are: 50 mM Hepes pH 7.3, 50 mM NaCl, 100 mM KF, 1 mM EDTA, 1 mM DTT, 0.1% Triton-X-100, […] HSP90, 40 nM SA-XL, 40 nM bio-GM. Test compounds are dissolved in DMSO, prediluted in assay buffer and tested at a final concentration between 5000 nM and 0.3 nM. The resulting DMSO concentration is 0.5% and included in all controls. High controls are without test compounds, low controls without test compounds, without HSP90 and without bio-GM. As a reference inhibitor unlabeled GM is used in the same concentrations as the test compounds.
Inhibition is calculated compared to the assay controls using an Excel spreadsheet (Microsoft). IC50 values are calculated by non-linear least squares fitting to the standard dose-response model using GraphPad Prism (GraphPad Software Inc).

[2] = system: TNFα release from LPS stimulated THP-1 (hCE-1 +ve) cells; assay: LPS-stimulation of THP-1 cells (TNF-α release); assay type: cell-based, human; details: IC50 range, TNF-α after LPS 1 μg/ml, 6 hours, read-out: THP-1 Assay
Experimental: THP-1 cells are plated in […] at a density of 4×10^4 cells/well in V-bottomed 96 well tissue culture treated plates and incubated at 37° C. in 5% CO2 for 16 hours. 2 Hours after the addition of the inhibitor in 100 μl of tissue culture media, the cells are stimulated with LPS (E. Coli strain 005:B5, Sigma) at a final concentration of 1 μg/ml and incubated at 37° C. in 5% CO2 for 6 hours. TNF-α levels are measured from cell-free supernatants by sandwich ELISA (R&D Systems #QTA00B).

Compound	IC50 [1]	IC50 ([2]; Homo sapiens, THP-1)	IC50 [2]
CC(C)c1cc(C(=O)N2CCC(N[C@@H](C)C(=O)OC(C)(C)C)CC2)c(O)cc1O [Example 8, tert-butyl N-(1-{[2,4-dihydroxy-5-(propan-2-yl)phenyl]carbonyl}piperidin-4-yl)-L-alaninate]	< 100 nM	> 1000 nM	–
CC(C)c1cc(C(=O)N2CCC(N[C@@H](COC(C)(C)C)C(=O)OC(C)(C)C)CC2)c(O)cc1O [Example 11, tert-butyl O-tert-butyl-N-(1-{[2,4-dihydroxy-5-(propan-2-yl)phenyl]carbonyl}piperidin-4-yl)-L-serinate]	< 100 nM	> 1000 nM	–
CC(C)C[C@@H](NC1CCN(C(=O)c2cc(C(C)C)c(O)cc2O)CC1)C(=O)OC1CCCC1 [Example 12, cyclopentyl N-(1-{[2,4-dihydroxy-5-(propan-2-yl)phenyl]carbonyl}piperidin-4-yl)-D-leucinate]	< 100 nM	> 1000 nM	–
CC(C)c1cc(C(=O)N2CCC(N[C@H](C(=O)OC3CCCC3)C3CCCCC3)CC2)c(O)cc1O [Example 14, cyclopentyl (2S)-cyclohexyl[(1-{[2,4-dihydroxy-5-(propan-2-yl)phenyl]carbonyl}piperidin-4-yl)amino]ethanoate]	100 to 1000 nM	> 1000 nM	–
CC(C)c1cc(C(=O)N2CCC(N[C@@H](Cc3ccccc3)C(=O)OC(C)(C)C)CC2)c(O)cc1O [Example 16, tert-butyl N-(1-{[2,4-dihydroxy-5-(propan-2-yl)phenyl]carbonyl}piperidin-4-yl)-L-phenylalaninate]	< 100 nM	> 1000 nM	–
CC(C)c1cc(C(=O)N2CCC(N[C@@H](CO)C(=O)OC3CCCC3)CC2)c(O)cc1O [Example 18, cyclopentyl N-(1-{[2,4-dihydroxy-5-(propan-2-yl)phenyl]carbonyl}piperidin-4-yl)-L-serinate]	< 100 nM	100 to 1000 nM	–
CC(C)C[C@@H](NC1CCN(C(=O)c2cc(C(C)C)c(O)cc2O)CC1)C(=O)OC(C)(C)C [Example 19, tert-butyl N-(1-{[2,4-dihydroxy-5-(propan-2-yl)phenyl]carbonyl}piperidin-4-yl)-D-leucinate]	< 100 nM	> 1000 nM	–
CC(C)C[C@H](NCC1CCN(C(=O)c2cc(C(C)C)c(O)cc2O)CC1)C(=O)OC(C)(C)C [Example 24, tert-butyl N-[(1-{[2,4-dihydroxy-5-(propan-2-yl)phenyl]carbonyl}piperidin-4-yl)methyl]-L-leucinate]	< 100 nM	> 1000 nM	–
CC(C)c1cc(C(=O)N2CCC(CN[C@@H](Cc3ccccc3)C(=O)OC(C)(C)C)CC2)c(O)cc1O [Example 25, tert-butyl N-[(1-{[2,4-dihydroxy-5-(propan-2-yl)phenyl]carbonyl}piperidin-4-yl)methyl]-L-phenylalaninate]	< 100 nM	> 1000 nM	–
CC(C)c1cc(C(=O)N2CCC(CN[C@@H](C)C(=O)OC(C)(C)C)CC2)c(O)cc1O [Example 26, tert-butyl N-[(1-{[2,4-dihydroxy-5-(propan-2-yl)phenyl]carbonyl}piperidin-4-yl)methyl]-L-alaninate]	< 100 nM	> 1000 nM	–
CC(C)C[C@@H](NCC1CCN(C(=O)c2cc(C(C)C)c(O)cc2O)CC1)C(=O)OC(C)(C)C [Example 27, tert-butyl N-[(1-{[2,4-dihydroxy-5-(propan-2-yl)phenyl]carbonyl}piperidin-4-yl)methyl]-D-leucinate]	< 100 nM	> 1000 nM	–
CC(C)c1cc(C(=O)N2CCC(CN[C@H](C(=O)OC3CCCC3)C3CCCCC3)CC2)c(O)cc1O [Example 30, cyclopentyl (2S)-cyclohexyl{[(1-{[2,4-dihydroxy-5-(propan-2-yl)phenyl]carbonyl}piperidin-4-yl)methyl]amino}ethanoate]	100 to 1000 nM	> 1000 nM	–
CC(C)c1cc(C(=O)N2CCC(CN[C@@H](COC(C)(C)C)C(=O)OC(C)(C)C)CC2)c(O)cc1O [Example 35, tert-butyl O-tert-butyl-N-[(1-{[2,4-dihydroxy-5-(propan-2-yl)phenyl]carbonyl}piperidin-4-yl)methyl]-L-serinate]	< 100 nM	> 1000 nM	–
CC(C)c1cc(C(=O)N2CCC(CN[C@@H](CO)C(=O)OC(C)(C)C)CC2)c(O)cc1O [Example 37, tert-butyl N-[(1-{[2,4-dihydroxy-5-(propan-2-yl)phenyl]carbonyl}piperidin-4-yl)methyl]-L-serinate]	< 100 nM	100 to 1000 nM	–
CC(C)c1cc(C(=O)N2CCC(CCN[C@@H](C)C(=O)OC3CCCC3)CC2)c(O)cc1O [Example 39, cyclopentyl N-[2-(1-{[2,4-dihydroxy-5-(propan-2-yl)phenyl]carbonyl}piperidin-4-yl)ethyl]-L-alaninate]	< 100 nM	< 100 nM	–
CC(C)C[C@H](NCCC1CCN(C(=O)c2cc(C(C)C)c(O)cc2O)CC1)C(=O)OC(C)(C)C [Example 42, tert-butyl N-[2-(1-{[2,4-dihydroxy-5-(propan-2-yl)phenyl]carbonyl}piperidin-4-yl)ethyl]-L-leucinate]	< 100 nM	100 to 1000 nM	–
CC(C)c1cc(C(=O)N2CCC(CCN[C@H](C(=O)OC3CCCC3)C(C)C)CC2)c(O)cc1O [Example 46, cyclopentyl N-[2-(1-{[2,4-dihydroxy-5-(propan-2-yl)phenyl]carbonyl}piperidin-4-yl)ethyl]-L-valinate]	< 100 nM	> 1000 nM	–
CC(C)c1cc(C(=O)N2CCC(CCN[C@@H](CO)C(=O)OC3CCCC3)CC2)c(O)cc1O [Example 47, cyclopentyl N-[2-(1-{[2,4-dihydroxy-5-(propan-2-yl)phenyl]carbonyl}piperidin-4-yl)ethyl]-L-serinate]	< 100 nM	100 to 1000 nM	–
CC(C)c1cc(C(=O)N2CCC(CCN[C@H](C(=O)OC3CCCC3)C3CCCCC3)CC2)c(O)cc1O [Example 48, cyclopentyl (2S)-cyclohexyl{[2-(1-{[2,4-dihydroxy-5-(propan-2-yl)phenyl]carbonyl}piperidin-4-yl)ethyl]amino}ethanoate]	100 to 1000 nM	> 1000 nM	–
CC(C)c1cc(C(=O)N2CCC(CCN[C@H](C(=O)OC3CCCC3)c3ccccc3)CC2)c(O)cc1O [Example 51, cyclopentyl (2S)-{[2-(1-{[2,4-dihydroxy-5-(propan-2-yl)phenyl]carbonyl}piperidin-4-yl)ethyl]amino}(phenyl)ethanoate]	< 100 nM	100 to 1000 nM	–
CC(C)C[C@H](NCCCNCC1CCN(C(=O)c2cc(C(C)C)c(O)cc2O)CC1)C(=O)OC1CCCC1 [Example 126]	< 100 nM	> 1000 nM	–
cyclopentyl N-[(1-{[2,4-dihydroxy-5-(propan-2-yl)phenyl]carbonyl}piperidin-4-yl)methyl]-L-valinate [Example 29]	< 100 nM	–	> 1000 nM
